From patent US12240844B2 (Voronoi, Inc., priority 2019, dated 2025) come the findings set out here.

SMILES strings stand for the structures.

What all share (test): scanMAX Kinase panel (DiscoverX), % control
Common to all, as to assay type: binding
Common to all, as to settings: <35% = active

One test deals with T1, CLK4 (Homo sapiens, UniProt Q9HAZ1).
T1 construct: purchased DiscoverX
The protocol: (§1) Specifically, for Examples 162, 160, 105, 217, 205, 96, 207, 184, 206, 221, 238, and 237 selected among the example compounds of the present invention, it was decided to measure enzyme (kinase) selectivity by DiscoverX, and the experiment was conducted using a panel for scanMAX™ Kinase analysis. At this time, the concentration of the drug treated with the enzyme was 1 uM in DMSO, the control percentage (% control) was determined in the same way as in Equation 1 below, and the results were shown in Table 6 below. [formula] Here, the positive control refers to a compound showing a control percentage of 0%, and the negative control is DMSO, indicating a control percentage of 100%. Also, in the enzyme selectivity of the present invention, if the control percentage for each enzyme was <35% (i.e., less than 35%), it was determined to have activity against the relevant enzyme.

In another test the target is T2, DYRK1A (Homo sapiens, UniProt Q13627).
T2 construct: purchased DiscoverX
The protocol: as §1

A further test concerns the target T3, GAK (Homo sapiens, UniProt O14976).
T3 construct: purchased DiscoverX
T3 sequence (O14976 1-1311): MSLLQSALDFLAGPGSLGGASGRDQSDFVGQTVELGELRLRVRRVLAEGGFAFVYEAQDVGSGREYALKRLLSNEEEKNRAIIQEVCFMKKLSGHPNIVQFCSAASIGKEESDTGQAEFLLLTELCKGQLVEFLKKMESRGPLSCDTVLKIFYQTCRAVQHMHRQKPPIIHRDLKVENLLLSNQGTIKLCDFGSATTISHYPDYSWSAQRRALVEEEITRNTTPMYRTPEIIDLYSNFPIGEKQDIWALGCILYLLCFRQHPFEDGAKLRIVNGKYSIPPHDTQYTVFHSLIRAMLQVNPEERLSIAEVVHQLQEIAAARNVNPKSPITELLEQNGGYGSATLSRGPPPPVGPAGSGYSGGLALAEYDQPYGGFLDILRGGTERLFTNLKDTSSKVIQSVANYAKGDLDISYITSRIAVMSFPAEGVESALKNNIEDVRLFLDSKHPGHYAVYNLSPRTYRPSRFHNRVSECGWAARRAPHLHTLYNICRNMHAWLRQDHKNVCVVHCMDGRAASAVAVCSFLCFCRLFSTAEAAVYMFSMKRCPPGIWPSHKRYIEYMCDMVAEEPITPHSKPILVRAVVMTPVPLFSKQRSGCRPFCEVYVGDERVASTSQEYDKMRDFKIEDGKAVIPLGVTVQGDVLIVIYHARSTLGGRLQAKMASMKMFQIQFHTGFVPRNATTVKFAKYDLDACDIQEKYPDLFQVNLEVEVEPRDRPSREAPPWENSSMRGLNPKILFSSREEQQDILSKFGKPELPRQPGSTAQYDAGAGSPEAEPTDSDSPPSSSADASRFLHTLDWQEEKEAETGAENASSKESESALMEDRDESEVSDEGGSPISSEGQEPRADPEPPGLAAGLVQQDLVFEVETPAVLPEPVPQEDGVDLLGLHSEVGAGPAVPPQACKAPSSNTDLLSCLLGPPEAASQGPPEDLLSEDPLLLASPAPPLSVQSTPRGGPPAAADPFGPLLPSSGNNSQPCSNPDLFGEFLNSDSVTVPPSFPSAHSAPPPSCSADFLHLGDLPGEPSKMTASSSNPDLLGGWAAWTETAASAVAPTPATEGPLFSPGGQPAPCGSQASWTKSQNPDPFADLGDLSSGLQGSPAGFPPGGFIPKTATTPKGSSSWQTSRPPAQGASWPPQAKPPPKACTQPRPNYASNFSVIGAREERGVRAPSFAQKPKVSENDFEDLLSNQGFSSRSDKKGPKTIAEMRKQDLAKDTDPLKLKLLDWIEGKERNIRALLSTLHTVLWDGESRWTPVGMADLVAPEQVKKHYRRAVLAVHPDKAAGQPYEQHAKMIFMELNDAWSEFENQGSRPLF
How it is done:
as §1

The next test has as its target T4, ALK (C1156Y) (Homo sapiens, UniProt Q9UM73, C1156Y).
T4 construct: purchased DiscoverX
The protocol:
as §1

In another test the target is T5, CLK1 (Homo sapiens, UniProt P49759).
T5 construct: purchased DiscoverX
T5 sequence (P49759 whole entry): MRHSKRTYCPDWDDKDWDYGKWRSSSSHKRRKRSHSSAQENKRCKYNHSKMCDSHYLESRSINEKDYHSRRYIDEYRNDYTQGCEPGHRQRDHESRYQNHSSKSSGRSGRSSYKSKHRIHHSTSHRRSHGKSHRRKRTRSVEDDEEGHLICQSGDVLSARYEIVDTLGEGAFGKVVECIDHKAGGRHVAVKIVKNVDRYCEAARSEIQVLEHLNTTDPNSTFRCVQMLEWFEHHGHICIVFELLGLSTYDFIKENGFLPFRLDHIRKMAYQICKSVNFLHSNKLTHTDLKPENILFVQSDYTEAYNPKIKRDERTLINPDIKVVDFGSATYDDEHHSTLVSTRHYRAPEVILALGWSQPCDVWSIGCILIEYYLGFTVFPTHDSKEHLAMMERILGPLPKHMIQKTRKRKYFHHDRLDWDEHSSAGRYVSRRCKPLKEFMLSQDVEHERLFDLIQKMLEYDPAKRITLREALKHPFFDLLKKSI
How it is done:
as §1

In the next test the target is LRRK2 (G2019S) (Homo sapiens, UniProt Q5S007, G2019S). The arrangement: purchased DiscoverX. How it is done:
as §1

Another test has as its target T6, TTK (Homo sapiens, UniProt P33981).
T6 sequence (P33981 1-857): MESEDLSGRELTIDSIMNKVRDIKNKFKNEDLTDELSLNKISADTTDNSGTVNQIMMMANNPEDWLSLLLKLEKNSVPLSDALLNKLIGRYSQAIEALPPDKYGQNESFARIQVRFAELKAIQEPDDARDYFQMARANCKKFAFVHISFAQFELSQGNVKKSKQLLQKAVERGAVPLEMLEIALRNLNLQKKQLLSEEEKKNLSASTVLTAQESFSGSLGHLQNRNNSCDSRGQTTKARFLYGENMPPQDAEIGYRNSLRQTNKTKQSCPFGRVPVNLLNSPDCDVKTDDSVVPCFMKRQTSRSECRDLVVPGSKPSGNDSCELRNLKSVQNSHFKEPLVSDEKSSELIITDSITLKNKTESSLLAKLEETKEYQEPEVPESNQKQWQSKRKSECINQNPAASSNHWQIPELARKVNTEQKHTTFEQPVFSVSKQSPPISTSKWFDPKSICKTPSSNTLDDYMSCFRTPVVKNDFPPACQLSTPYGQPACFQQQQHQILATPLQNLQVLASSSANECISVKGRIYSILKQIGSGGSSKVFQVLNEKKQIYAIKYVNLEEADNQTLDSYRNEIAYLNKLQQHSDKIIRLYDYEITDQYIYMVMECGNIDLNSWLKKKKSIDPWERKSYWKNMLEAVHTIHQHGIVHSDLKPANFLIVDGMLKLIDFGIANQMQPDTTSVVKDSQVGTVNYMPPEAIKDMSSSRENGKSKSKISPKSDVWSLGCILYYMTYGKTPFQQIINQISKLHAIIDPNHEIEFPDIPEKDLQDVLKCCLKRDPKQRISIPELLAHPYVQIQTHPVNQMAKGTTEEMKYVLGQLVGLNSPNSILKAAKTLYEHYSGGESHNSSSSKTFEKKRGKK
The arrangement: purchased DiscoverX. The protocol: as §1

The next test has as its target LRRK2 (Homo sapiens, UniProt Q5S007). The arrangement: purchased DiscoverX. How it is done: as §1

Sequence of LRRK2 (G2019S) (Q5S007 whole entry G2019S): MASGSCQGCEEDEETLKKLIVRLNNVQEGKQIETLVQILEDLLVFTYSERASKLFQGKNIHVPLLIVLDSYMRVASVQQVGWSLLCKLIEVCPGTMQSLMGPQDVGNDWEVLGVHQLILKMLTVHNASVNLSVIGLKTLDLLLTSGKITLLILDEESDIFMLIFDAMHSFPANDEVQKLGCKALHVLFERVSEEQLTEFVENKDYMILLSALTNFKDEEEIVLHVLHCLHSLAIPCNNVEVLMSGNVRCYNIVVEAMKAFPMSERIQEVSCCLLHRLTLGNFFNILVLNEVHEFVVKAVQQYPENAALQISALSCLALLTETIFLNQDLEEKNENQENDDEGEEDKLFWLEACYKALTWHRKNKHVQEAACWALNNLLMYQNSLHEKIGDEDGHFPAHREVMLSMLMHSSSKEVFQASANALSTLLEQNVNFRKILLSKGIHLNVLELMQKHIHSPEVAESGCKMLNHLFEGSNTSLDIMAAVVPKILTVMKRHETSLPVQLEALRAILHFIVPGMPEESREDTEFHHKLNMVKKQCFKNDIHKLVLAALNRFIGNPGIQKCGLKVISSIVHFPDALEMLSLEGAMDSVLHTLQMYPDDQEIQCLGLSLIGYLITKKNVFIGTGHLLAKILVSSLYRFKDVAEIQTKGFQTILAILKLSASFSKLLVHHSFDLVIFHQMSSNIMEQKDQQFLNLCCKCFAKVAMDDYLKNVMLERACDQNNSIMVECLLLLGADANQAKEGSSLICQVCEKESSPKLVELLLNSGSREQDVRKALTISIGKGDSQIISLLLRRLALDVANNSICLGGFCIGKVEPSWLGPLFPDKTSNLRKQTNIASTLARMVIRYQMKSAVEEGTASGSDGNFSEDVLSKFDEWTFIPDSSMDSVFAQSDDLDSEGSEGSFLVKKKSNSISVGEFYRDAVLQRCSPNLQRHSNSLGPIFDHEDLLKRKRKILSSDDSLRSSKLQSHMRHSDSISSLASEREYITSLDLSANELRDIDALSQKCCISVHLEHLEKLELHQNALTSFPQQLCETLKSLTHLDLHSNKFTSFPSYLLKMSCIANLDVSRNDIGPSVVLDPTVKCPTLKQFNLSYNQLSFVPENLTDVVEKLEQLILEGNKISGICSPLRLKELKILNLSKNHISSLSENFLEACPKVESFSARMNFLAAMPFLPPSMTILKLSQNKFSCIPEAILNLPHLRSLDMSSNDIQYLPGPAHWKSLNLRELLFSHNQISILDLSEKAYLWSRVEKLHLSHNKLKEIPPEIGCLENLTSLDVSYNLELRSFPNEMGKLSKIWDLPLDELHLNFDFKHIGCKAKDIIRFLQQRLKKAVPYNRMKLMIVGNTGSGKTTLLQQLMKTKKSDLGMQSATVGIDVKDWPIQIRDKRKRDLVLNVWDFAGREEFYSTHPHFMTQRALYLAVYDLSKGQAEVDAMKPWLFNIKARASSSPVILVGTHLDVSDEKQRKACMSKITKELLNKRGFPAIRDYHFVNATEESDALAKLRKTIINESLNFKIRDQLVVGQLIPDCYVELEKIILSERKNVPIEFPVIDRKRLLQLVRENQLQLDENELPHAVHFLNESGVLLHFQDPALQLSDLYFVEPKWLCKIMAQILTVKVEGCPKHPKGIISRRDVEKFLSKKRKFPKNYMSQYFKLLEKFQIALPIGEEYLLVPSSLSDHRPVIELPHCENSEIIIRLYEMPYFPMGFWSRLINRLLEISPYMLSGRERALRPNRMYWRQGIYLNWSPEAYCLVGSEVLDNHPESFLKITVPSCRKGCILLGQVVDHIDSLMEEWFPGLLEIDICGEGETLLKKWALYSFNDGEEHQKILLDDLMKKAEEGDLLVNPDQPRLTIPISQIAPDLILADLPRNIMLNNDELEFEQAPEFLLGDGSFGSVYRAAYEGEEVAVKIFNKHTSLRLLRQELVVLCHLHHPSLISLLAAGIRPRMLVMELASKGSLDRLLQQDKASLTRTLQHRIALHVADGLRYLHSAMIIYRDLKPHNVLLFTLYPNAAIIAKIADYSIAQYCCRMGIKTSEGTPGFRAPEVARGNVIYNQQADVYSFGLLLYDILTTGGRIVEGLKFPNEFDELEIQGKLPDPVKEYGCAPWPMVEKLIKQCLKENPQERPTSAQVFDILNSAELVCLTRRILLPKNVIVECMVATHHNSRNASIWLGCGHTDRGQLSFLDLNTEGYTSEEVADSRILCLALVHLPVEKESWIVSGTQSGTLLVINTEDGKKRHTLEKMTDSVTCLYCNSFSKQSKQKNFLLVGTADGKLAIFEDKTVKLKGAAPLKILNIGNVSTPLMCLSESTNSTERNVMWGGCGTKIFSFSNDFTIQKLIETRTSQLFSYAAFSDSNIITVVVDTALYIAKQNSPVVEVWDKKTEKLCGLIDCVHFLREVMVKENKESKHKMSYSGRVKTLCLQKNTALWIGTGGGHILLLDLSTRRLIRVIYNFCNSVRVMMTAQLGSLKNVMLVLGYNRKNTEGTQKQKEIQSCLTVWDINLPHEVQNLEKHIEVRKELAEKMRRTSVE
T1 sequence (Q9HAZ1 whole entry): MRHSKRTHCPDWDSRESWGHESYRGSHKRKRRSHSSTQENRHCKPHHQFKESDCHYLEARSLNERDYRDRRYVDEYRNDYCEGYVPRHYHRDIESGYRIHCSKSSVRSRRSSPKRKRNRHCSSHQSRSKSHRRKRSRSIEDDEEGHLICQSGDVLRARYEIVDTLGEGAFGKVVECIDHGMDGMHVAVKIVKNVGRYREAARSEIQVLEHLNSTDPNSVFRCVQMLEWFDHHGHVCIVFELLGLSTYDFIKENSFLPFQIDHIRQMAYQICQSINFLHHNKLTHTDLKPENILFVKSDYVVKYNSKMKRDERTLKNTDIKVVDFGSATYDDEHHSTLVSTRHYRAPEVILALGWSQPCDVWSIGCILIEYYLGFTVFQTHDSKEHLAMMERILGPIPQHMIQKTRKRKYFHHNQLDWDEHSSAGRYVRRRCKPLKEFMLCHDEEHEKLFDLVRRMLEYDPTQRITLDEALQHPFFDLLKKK
Sequence of LRRK2 (Q5S007 whole entry): as the sequence (Q5S007 whole entry G2019S) above, with S2019G counted along it
T4 sequence (Q9UM73 19-1620 C1156Y): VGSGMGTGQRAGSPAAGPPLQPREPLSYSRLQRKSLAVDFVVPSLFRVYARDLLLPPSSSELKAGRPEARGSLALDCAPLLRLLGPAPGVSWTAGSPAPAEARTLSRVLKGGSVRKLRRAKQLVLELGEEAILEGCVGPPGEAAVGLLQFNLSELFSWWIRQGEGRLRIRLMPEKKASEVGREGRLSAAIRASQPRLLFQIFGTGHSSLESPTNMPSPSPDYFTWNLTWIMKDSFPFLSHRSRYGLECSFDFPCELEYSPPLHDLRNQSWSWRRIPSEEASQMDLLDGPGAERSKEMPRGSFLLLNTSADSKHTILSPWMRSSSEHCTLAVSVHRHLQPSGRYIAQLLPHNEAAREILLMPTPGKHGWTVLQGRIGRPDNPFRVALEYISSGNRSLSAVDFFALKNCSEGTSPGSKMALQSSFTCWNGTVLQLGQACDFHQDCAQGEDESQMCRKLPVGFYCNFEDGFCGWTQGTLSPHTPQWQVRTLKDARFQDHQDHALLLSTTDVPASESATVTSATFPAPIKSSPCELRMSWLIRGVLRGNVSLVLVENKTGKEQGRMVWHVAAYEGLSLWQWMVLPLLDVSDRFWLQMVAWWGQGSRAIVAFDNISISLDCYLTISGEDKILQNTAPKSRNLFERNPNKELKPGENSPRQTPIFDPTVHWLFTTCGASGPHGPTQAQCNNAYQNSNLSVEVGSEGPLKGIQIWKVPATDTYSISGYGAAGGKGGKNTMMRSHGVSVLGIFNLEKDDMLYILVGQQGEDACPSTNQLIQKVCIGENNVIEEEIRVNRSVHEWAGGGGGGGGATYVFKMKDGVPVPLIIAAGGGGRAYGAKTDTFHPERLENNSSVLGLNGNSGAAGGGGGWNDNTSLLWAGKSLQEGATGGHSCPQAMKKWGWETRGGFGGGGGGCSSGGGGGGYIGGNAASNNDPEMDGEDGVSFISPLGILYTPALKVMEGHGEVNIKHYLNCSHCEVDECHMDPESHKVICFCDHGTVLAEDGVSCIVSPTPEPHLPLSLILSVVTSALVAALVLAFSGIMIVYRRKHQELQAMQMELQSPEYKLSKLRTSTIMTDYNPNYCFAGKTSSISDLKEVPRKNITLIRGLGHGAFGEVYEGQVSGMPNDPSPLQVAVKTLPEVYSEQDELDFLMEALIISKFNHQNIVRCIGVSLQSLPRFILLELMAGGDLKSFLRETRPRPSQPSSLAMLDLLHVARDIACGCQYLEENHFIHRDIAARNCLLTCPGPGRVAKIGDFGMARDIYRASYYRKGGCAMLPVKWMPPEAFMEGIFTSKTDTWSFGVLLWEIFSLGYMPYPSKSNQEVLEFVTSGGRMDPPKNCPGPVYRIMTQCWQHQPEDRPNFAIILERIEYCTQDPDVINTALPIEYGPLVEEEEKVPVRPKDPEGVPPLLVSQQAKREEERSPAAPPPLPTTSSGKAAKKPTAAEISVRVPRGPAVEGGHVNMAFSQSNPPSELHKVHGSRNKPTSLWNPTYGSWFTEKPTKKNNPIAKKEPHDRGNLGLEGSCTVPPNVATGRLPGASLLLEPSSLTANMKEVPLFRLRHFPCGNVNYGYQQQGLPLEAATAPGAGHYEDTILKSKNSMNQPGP

In the case of `CCNc1cc(Nc2ccc(C(=O)N3CCC(N4C[C@@H]5C[C@H]4CO5)CC3)c3c2OCC3)nc2[nH]cc(C(F)(F)F)c12` [Example 105, (4-((1S,4S)-2-oxa-5-azabicyclo[2.2.1]heptan-5-yl)piperidin-1-yl)(7-((4-(ethylamino)-3-(trifluoromethyl)-1H-pyrrolo[2,3-b]pyridin-6-yl)amino)-2,3-dihydrobenzofuran-4-yl)methanone], the remaining binding at 1 µM amounted to 5.5% at CLK4; 0% at DYRK1A; 4.8% at GAK; 2% on ALK (C1156Y); 1.5% on CLK1; 0% at LRRK2 (G2019S). Besides, the remaining binding at 1 µM on TTK turned out to be 2.6%; at LRRK2 it was 0%.

Regarding `O=C(c1ccc(Nc2cc(C3CC3)c3c(C(F)(F)F)c[nH]c3n2)c2c1CCO2)N1CC[C@@H](N2CCOCC2)C1` [Example 238, (R)-(7-((4-cyclopropyl-3-(trifluoromethyl)-1H-pyrrolo[2,3-b]pyridin-6-yl)amino)-2,3-dihydrobenzofuran-4-yl)(3-morpholinopyrrolidin-1-yl)methanone], the remaining binding at 1 µM was 0.35% on CLK4; 1.9% on DYRK1A; 27% on GAK; 42% on ALK (C1156Y); 2.4% on CLK1; 38% at LRRK2 (G2019S). Also, the remaining binding at 1 µM on TTK worked out at 4.1%; at LRRK2 it was 48%.

Take `CNc1cc(Nc2ccc(C(=O)N3CCC(N4CCOCC4)CC3)c3c2OCCO3)nc2[nH]cc(C(F)(F)F)c12` [Example 160, (8-((4-(methylamino)-3-(trifluoromethyl)-1H-pyrrolo[2,3-b]pyridin-6-yl)amino)-2,3-dihydrobenzo [b] [1,4]dioxin-5-yl)(4-morpholinopiperidin-1-yl)methanone]: the remaining binding at 1 µM is 0.55% on CLK4; 0.35% on DYRK1A; 6.3% on GAK; 0.9% at ALK (C1156Y); 13% at CLK1; 0.35% at LRRK2 (G2019S). Besides, the remaining binding at 1 µM at TTK was 3.4%; on LRRK2, 2.8%.

Take `O=C(c1ccc(Nc2cc(C3CC3)c3c(C(F)(F)F)c[nH]c3n2)c2c1CCO2)N1CC[C@H](N2CCOCC2)C1` [Example 237, (S)-(7-((4-cyclopropyl-3-(trifluoromethyl)-1H-pyrrolo[2,3-b]pyridin-6-yl)amino)-2,3-dihydrobenzofuran-4-yl)(3-morpholinopyrrolidin-1-yl)methanone]: the remaining binding at 1 µM on CLK4 was 0.55%; at DYRK1A it was 2.2%; on GAK, 15%; on ALK (C1156Y) it was 9.7%; at CLK1, 3.6%; on LRRK2 (G2019S), 31%. Besides, the values for the remaining binding at 1 µM at TTK and at LRRK2 were 3.5% and 36%, respectively.
